Data set [1] concerns croton oil-induced ear edema. The data set can be described thus: Test for croton oil-induced ear edema. It is filed as in vivo. Particulars: rat right auricle; for Edema suppression rate of 6 hours after administration of inflammatory agent (%): 6 hours after croton oil; for Edema suppression rate of 24 hours after administration of inflammatory agent (%): 24 hours after croton oil. Here is the method:
Croton oil ear edema test, which is a representative model for dermatitis, was used to study the pharmacological effect of compounds of the present invention.
Five individuals/group of rats of 5 weeks old (body weight, 128 g to 169 g) were used. One day before the test, the thickness of the right ear was measured under ether anesthesia using a dial thickness gauge, to obtain the Pre value. On the day of the test, 20 mg each of the ointments to be tested, which had been prepared to have various concentrations in white vaseline, was applied to the right auricle (both sides) of each rat, and a collar was then placed around the neck of the rat to prevent contacting/scratching and removal of the drug. Two hours later, the ointment was wiped off under ether anesthesia using absorbent cotton, and 0.1 mL of 5% croton oil (croton oil:ether:pyridine:distilled water=1:14:4:1) solution was applied dropwise to the both sides of the auricle while drying the solution with a drier (air blow), to induce ear edema. Six and 24 hours after the induction of the edema, the thickness of the right auricle was measured under ether anesthesia, and the edema rate and the edema suppression rate were calculated according to the equations below, which suppression rate is shown in Table 1.

Data set [2] has as its system croton oil-induced granuloma. The data set can be described thus: Test for croton oil-induced granuloma (air pouch exudate and thymus weight). The following applies: male Wistar rats, 7 days, vs control group. It is filed as in vivo, rat. From the text:
Using the croton oil granuloma test, which is a test method with which the local anti-inflammatory action and the systemic side effect can be evaluated at the same time, the pharmacological effect and the systemic side effect of the compounds of the present invention were studied.
Five individuals/group of male Wistar rats having body weights of 180 to 225 g were used, and hair on the back of these rats was shaved with a clipper under ether anesthesia, followed by preparing an air pouch by subcutaneous injection of 20 mL of air at the back. On the next day, 1 mL of cottonseed oil containing 1% croton oil was administered to the pouch. Each test drug was suspended in the croton oil-containing cottonseed oil before administration. Seven days later, blood was collected from abdominal aorta under ether anesthesia, and exudate in the pouch was collected and its fluid amount was measured. Further, the thymus was removed, and its weight was measured. The weight of the exudate and the weight of the thymus are shown in Table 2 as the suppression rate and the atrophy rate (%) with respect to those of the control group.

In the case of `CC12C=CC(=O)C=C1CCC1C2C(O)CC2(C)C1CC1OC(C3CCCCC3)OC12C(=O)COC1OC(CO)C(O)C(O)C1O` (centres unmarked) [Compound 2], the “Edema suppression rate of 6 hours after administration of inflammatory agent (%)” value (“Edema suppression rate of 6 hours … (%)” below) in data set [1] (ointment concentration 0.001%) worked out at 13.5%; in data set [1] (ointment concentration 0.01%) it was 36.8%; in data set [1] (ointment concentration 0.1%) it was 50.2%. In addition, the “Edema suppression rate of 24 hours after administration of inflammatory agent (%)” value (shortened to “Edema suppression rate of 24 hours … (%)”) stood at 12.5% in data set [1] (ointment concentration 0.001%), 38.2% in data set [1] (ointment concentration 0.01%) and 49.5% in data set [1] (ointment concentration 0.1%).

On to `CC12C=CC(=O)C=C1CCC1C2C(O)CC2(C)C1CC1OC(C3CCCCC3)OC12C(=O)COC1OC(COC=O)C(OC=O)C(OC=O)C1OC=O` (centres unmarked) [Compound 7], for which the “Edema suppression rate of 6 hours … (%)” value was found to be 42.3% in data set [1] (ointment concentration 0.001%), 49.7% in data set [1] (ointment concentration 0.01%) and 48.5% in data set [1] (ointment concentration 0.1%). The “Edema suppression rate of 24 hours … (%)” value came to 52.0% in data set [1] (ointment concentration 0.001%), 53.4% in data set [1] (ointment concentration 0.01%) and 53.5% in data set [1] (ointment concentration 0.1%). In addition, the “Rate of exudates suppression (pharmacological effects)” value (from here on “Rate … (pharmacological effects)”) was 8.7% in data set [2] (dose 0.001 mg/rat into pouch), 52.4% in data set [2] (dose 0.01 mg/rat into pouch), 59.4% in data set [2] (dose 0.1 mg/rat into pouch) and 76.8% in data set [2] (dose 1 mg/rat into pouch). The “Rate of thymus atrophy (systemic side effects)” value (“Rate of thymus atrophy” for short) was 2.9% in data set [2] (dose 0.001 mg/rat into pouch), 0.0% in data set [2] (dose 0.01 mg/rat into pouch), 5.8% in data set [2] (dose 0.1 mg/rat into pouch) and 19.5% in data set [2] (dose 1 mg/rat into pouch).

On to `CCCC1O[C@@H]2C[C@H]3[C@@H]4CCC5=CC(=O)C=C[C@]5(C)[C@H]4[C@@H](O)C[C@]3(C)[C@]2(C(=O)CO)O1` (some centres unmarked) [Budesonide, budesonide, reference compound], for which the “Edema suppression rate of 6 hours … (%)” value in data set [1] (ointment concentration 0.001%) was 11.8%; in data set [1] (ointment concentration 0.01%), 32.3%; in data set [1] (ointment concentration 0.1%), 48.1%. Also, the “Edema suppression rate of 24 hours … (%)” value in data set [1] (ointment concentration 0.001%) is listed as 7.6%; in data set [1] (ointment concentration 0.01%), 33.5%; in data set [1] (ointment concentration 0.1%), 45.1%. Further, the “Rate … (pharmacological effects)” value in data set [2] (dose 0.001 mg/rat into pouch) was found to be 10.8%; in data set [2] (dose 0.01 mg/rat into pouch), 66.9%; in data set [2] (dose 0.1 mg/rat into pouch), 91.6%; in data set [2] (dose 1 mg/rat into pouch) it was 94.3%. Also, the “Rate of thymus atrophy” value in data set [2] (dose 0.001 mg/rat into pouch) is given as 7.3%; in data set [2] (dose 0.01 mg/rat into pouch), 17.7%; in data set [2] (dose 0.1 mg/rat into pouch), 74.5%; in data set [2] (dose 1 mg/rat into pouch) it was 87.5%.

Take `CCC(=O)OCC1OC(OCC(=O)C23OC(C4CCCCC4)OC2CC2C4CCC5=CC(=O)C=CC5(C)C4C(O)CC23C)C(OC(=O)CC)C(OC(=O)CC)C1OC(=O)CC` (centres unmarked) [Compound 4]: the “Edema suppression rate of 6 hours … (%)” value in data set [1] (ointment concentration 0.001%) came to 30.8%; in data set [1] (ointment concentration 0.01%) it was 46.3%; in data set [1] (ointment concentration 0.1%) it was 54.4%. Besides, the “Edema suppression rate of 24 hours … (%)” value stood at 33.8% in data set [1] (ointment concentration 0.001%), 70.2% in data set [1] (ointment concentration 0.01%) and 71.7% in data set [1] (ointment concentration 0.1%). Further, the “Rate … (pharmacological effects)” value is 17.9% in data set [2] (dose 0.001 mg/rat into pouch), 44.5% in data set [2] (dose 0.01 mg/rat into pouch), 87.0% in data set [2] (dose 0.1 mg/rat into pouch) and 94.5% in data set [2] (dose 1 mg/rat into pouch). In addition, the “Rate of thymus atrophy” value in data set [2] (dose 0.001 mg/rat into pouch), in data set [2] (dose 0.01 mg/rat into pouch), in data set [2] (dose 0.1 mg/rat into pouch) and in data set [2] (dose 1 mg/rat into pouch) was 0.0% in each case.

As for `CC(=O)OC1C(C)OC(OCC(=O)C23OC(C4CCCCC4)OC2CC2C4CCC5=CC(=O)C=CC5(C)C4C(O)CC23C)C(OC(C)=O)C1OC(C)=O` (centres unmarked) [Compound 10], the “Edema suppression rate of 6 hours … (%)” value worked out at 42.4% in data set [1] (ointment concentration 0.001%), 55.9% in data set [1] (ointment concentration 0.01%) and 38.9% in data set [1] (ointment concentration 0.1%). Also, the figures for the “Edema suppression rate of 24 hours … (%)” value in data set [1] (ointment concentration 0.001%), in data set [1] (ointment concentration 0.01%) and in data set [1] (ointment concentration 0.1%) were 45.8%, 33.2% and 39.9%, respectively. Moreover, the “Rate … (pharmacological effects)” value was found to be 4.6% in data set [2] (dose 0.001 mg/rat into pouch), 0.0% in data set [2] (dose 0.01 mg/rat into pouch), 4.8% in data set [2] (dose 0.1 mg/rat into pouch) and 5.3% in data set [2] (dose 1 mg/rat into pouch). Besides, the “Rate of thymus atrophy” value in data set [2] (dose 0.001 mg/rat into pouch), in data set [2] (dose 0.01 mg/rat into pouch), in data set [2] (dose 0.1 mg/rat into pouch) and in data set [2] (dose 1 mg/rat into pouch) was 0.0% throughout.

In the case of `CC12C=CC(=O)C=C1CCC1C2C(O)CC2(C)C1CC1OC(C3CCCCC3)OC12C(=O)COC1OC(COC(=O)c2ccco2)C(OC(=O)c2ccco2)C(OC(=O)c2ccco2)C1OC(=O)c1ccco1` (centres unmarked) [Compound 8], the “Edema suppression rate of 6 hours … (%)” value was 24.2% in data set [1] (ointment concentration 0.001%), 36.0% in data set [1] (ointment concentration 0.01%) and 33.4% in data set [1] (ointment concentration 0.1%). The “Edema suppression rate of 24 hours … (%)” value was 25.9% in data set [1] (ointment concentration 0.001%), 40.1% in data set [1] (ointment concentration 0.01%) and 49.6% in data set [1] (ointment concentration 0.1%). The “Rate … (pharmacological effects)” value in data set [2] (dose 0.001 mg/rat into pouch) was 19.1%; in data set [2] (dose 0.01 mg/rat into pouch), 42.1%; in data set [2] (dose 0.1 mg/rat into pouch) it was 78.0%; in data set [2] (dose 1 mg/rat into pouch), 95.0%. The “Rate of thymus atrophy” value came to 0.0% in data set [2] (dose 0.001 mg/rat into pouch), 0.0% in data set [2] (dose 0.01 mg/rat into pouch), 0.0% in data set [2] (dose 0.1 mg/rat into pouch) and 0.5% in data set [2] (dose 1 mg/rat into pouch).

For `CCCC1O[C@@H]2C[C@H]3[C@@H]4CCC5=CC(=O)C=C[C@]5(C)[C@H]4[C@@H](O)C[C@]3(C)[C@]2(C(=O)CO)O1` (stereo partly drawn) [Budesonide(R), reference compound], the “Rate … (pharmacological effects)” value worked out at 7.6% in data set [2] (dose 0.001 mg/rat into pouch), 44.9% in data set [2] (dose 0.01 mg/rat into pouch), 88.4% in data set [2] (dose 0.1 mg/rat into pouch) and 93.0% in data set [2] (dose 1 mg/rat into pouch). The “Rate of thymus atrophy” value was 15.6% in data set [2] (dose 0.001 mg/rat into pouch), 25.8% in data set [2] (dose 0.01 mg/rat into pouch), 74.5% in data set [2] (dose 0.1 mg/rat into pouch) and 90.2% in data set [2] (dose 1 mg/rat into pouch).

On to `C[C@]12C=CC(=O)C=C1CC[C@@H]1[C@@H]2[C@@H](O)C[C@@]2(C)[C@H]1C[C@H]1O[C@@H](C3CCCCC3)O[C@]12C(=O)CO` [desCIC, des-ciclesonide, reference compound], for which the “Rate … (pharmacological effects)” value in data set [2] (dose 0.001 mg/rat into pouch) turned out to be 62.0%; in data set [2] (dose 0.01 mg/rat into pouch), 74.1%; in data set [2] (dose 0.1 mg/rat into pouch), 92.7%; in data set [2] (dose 1 mg/rat into pouch), 94.1%. Further, the “Rate of thymus atrophy” value in data set [2] (dose 0.001 mg/rat into pouch) is on record as 0.0%; in data set [2] (dose 0.01 mg/rat into pouch), 11.7%; in data set [2] (dose 0.1 mg/rat into pouch), 22.4%; in data set [2] (dose 1 mg/rat into pouch), 86.4%.

For the origin of these results see patent publication US8765696B2, “Steroid compound” (Mikasa Seiyaku Co., Ltd., priority 2009, dated 2014).
